Source: patent publication US20090105270A1, “Kinase inhibition and anticancer therapy” (priority 2007, published 2009)

Tests used:
EphB4(h) = target: T1, EphB4(h) (Homo sapiens, UniProt P54760); assay: Upstate kinase activity inhibition assay EphB4(h); format: biochemical; settings: 40 min; read-out: percentage of enzyme activity that remains
T1 construct: purchased Upstate (KinaseProfiler service)

Fer(h) = target: T2, Fer(h) (Homo sapiens, UniProt P16591); assay: Upstate kinase activity inhibition assay Fer(h); format: biochemical; settings: 40 min; read-out: percentage of enzyme activity that remains
T2 construct: purchased Upstate (KinaseProfiler service)
T2 sequence (P16591 whole entry): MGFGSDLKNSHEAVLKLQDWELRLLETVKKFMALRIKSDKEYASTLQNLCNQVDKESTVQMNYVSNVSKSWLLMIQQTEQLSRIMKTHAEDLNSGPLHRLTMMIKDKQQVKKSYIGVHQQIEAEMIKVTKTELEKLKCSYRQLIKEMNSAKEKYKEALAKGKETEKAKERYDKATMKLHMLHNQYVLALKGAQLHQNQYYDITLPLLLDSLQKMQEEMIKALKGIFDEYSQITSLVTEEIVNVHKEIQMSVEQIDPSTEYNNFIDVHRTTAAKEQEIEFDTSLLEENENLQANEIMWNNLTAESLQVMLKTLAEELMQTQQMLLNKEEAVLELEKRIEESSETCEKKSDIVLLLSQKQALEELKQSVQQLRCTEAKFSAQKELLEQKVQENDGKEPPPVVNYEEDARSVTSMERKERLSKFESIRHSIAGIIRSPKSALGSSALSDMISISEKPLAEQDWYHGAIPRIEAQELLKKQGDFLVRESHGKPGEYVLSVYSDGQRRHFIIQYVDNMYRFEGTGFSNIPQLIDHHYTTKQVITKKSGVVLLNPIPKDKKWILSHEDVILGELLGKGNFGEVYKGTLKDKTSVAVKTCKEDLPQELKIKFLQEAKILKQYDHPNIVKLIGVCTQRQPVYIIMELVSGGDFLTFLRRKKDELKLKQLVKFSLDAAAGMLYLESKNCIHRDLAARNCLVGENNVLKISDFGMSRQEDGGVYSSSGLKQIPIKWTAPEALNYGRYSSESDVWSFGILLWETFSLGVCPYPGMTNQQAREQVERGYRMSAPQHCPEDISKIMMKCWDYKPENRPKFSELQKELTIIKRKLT

EphA2(h) = EphA2(h) (Homo sapiens, UniProt P29317); assay: Upstate kinase activity inhibition assay EphA2(h); settings: 40 min, read-out: percentage of enzyme activity that remains
Rsk2(h) = Rsk2(h) (Homo sapiens, UniProt P51812); assay: Upstate kinase activity inhibition assay Rsk2(h); settings: 40 min, read-out: percentage of enzyme activity that remains
SRPK2(h) = SRPK2(h) (Homo sapiens, UniProt P78362); assay: Upstate kinase activity inhibition assay SRPK2(h); settings: 40 min, read-out: percentage of enzyme activity that remains
PRAK(h) = PRAK(h) (Homo sapiens, UniProt Q8IW41); assay: Upstate kinase activity inhibition assay PRAK(h); settings: 40 min, read-out: percentage of enzyme activity that remains
MRCKβ(h) = target: T3, MRCKβ(h) (Homo sapiens, UniProt Q9Y5S2); assay: Upstate kinase activity inhibition assay MRCKβ(h); format: biochemical; settings: 40 min; read-out: percentage of enzyme activity that remains
T3 construct: purchased Upstate (KinaseProfiler service)

Arg(h) = Arg(h) (Homo sapiens, UniProt P42684); assay: Upstate kinase activity inhibition assay Arg(h); settings: 40 min, read-out: percentage of enzyme activity that remains
TSSK1(h) = TSSK1(h) (Homo sapiens, UniProt Q9BXA7); assay: Upstate kinase activity inhibition assay TSSK1(h); settings: 40 min, read-out: percentage of enzyme activity that remains
TBK1(h) = TBK1(h) (Homo sapiens, UniProt Q9UHD2); assay: Upstate kinase activity inhibition assay TBK1(h); settings: 40 min, read-out: percentage of enzyme activity that remains
Sequence of TBK1(h) (Q9UHD2 whole entry): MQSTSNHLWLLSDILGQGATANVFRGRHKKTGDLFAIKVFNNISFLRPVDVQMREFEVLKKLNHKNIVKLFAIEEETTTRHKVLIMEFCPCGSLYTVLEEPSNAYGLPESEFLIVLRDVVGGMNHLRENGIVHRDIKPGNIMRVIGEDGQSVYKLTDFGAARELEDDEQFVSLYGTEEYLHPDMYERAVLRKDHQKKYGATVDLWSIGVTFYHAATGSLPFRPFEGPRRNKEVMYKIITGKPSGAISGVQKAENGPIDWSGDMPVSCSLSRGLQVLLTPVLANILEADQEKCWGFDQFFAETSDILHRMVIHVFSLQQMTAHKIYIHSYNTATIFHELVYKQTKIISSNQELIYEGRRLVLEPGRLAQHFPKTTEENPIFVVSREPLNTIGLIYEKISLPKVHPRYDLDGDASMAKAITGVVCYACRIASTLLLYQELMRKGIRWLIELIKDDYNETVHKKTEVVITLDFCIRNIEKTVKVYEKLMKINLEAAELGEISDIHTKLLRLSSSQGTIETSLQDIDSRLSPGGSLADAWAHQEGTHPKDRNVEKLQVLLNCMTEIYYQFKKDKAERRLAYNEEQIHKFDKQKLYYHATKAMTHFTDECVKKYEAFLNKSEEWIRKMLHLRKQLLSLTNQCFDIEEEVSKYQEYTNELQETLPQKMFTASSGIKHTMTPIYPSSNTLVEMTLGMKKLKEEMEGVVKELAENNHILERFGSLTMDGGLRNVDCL

CHK1(h) = CHK1(h) (Homo sapiens, UniProt O14757); assay: Upstate kinase activity inhibition assay CHK1(h)
IKKα(h) = target: T4, IKKα(h) (Homo sapiens, UniProt O15111); assay: Upstate kinase activity inhibition assay IKKα(h); format: biochemical; settings: 40 min; read-out: percentage of enzyme activity that remains
T4 construct: purchased Upstate (KinaseProfiler service)

JNK3(h) = target: T5, JNK3(h) (Homo sapiens, UniProt P53779); assay: Upstate kinase activity inhibition assay JNK3(h); format: biochemical
T5 construct: purchased Upstate (KinaseProfiler service)

PKBγ(h) = target: T6, PKBγ(h) (Homo sapiens, UniProt Q9Y243); assay: Upstate kinase activity inhibition assay PKBγ(h); format: biochemical; settings: 40 min; read-out: percentage of enzyme activity that remains
T6 construct: purchased Upstate (KinaseProfiler service)

ZIPK(h) = ZIPK(h) (Homo sapiens, UniProt O43293); assay: Upstate kinase activity inhibition assay ZIPK(h); settings: 40 min, read-out: percentage of enzyme activity that remains
PAK6(h) = PAK6(h) (Homo sapiens, UniProt Q9NQU5); assay: Upstate kinase activity inhibition assay PAK6(h); settings: 40 min, read-out: percentage of enzyme activity that remains
ROCK-I(h) = ROCK-I(h) (Homo sapiens, UniProt Q13464); assay: Upstate kinase activity inhibition assay ROCK-I(h); settings: 40 min, read-out: percentage of enzyme activity that remains
Sequence of ROCK-I(h) (Q13464 whole entry): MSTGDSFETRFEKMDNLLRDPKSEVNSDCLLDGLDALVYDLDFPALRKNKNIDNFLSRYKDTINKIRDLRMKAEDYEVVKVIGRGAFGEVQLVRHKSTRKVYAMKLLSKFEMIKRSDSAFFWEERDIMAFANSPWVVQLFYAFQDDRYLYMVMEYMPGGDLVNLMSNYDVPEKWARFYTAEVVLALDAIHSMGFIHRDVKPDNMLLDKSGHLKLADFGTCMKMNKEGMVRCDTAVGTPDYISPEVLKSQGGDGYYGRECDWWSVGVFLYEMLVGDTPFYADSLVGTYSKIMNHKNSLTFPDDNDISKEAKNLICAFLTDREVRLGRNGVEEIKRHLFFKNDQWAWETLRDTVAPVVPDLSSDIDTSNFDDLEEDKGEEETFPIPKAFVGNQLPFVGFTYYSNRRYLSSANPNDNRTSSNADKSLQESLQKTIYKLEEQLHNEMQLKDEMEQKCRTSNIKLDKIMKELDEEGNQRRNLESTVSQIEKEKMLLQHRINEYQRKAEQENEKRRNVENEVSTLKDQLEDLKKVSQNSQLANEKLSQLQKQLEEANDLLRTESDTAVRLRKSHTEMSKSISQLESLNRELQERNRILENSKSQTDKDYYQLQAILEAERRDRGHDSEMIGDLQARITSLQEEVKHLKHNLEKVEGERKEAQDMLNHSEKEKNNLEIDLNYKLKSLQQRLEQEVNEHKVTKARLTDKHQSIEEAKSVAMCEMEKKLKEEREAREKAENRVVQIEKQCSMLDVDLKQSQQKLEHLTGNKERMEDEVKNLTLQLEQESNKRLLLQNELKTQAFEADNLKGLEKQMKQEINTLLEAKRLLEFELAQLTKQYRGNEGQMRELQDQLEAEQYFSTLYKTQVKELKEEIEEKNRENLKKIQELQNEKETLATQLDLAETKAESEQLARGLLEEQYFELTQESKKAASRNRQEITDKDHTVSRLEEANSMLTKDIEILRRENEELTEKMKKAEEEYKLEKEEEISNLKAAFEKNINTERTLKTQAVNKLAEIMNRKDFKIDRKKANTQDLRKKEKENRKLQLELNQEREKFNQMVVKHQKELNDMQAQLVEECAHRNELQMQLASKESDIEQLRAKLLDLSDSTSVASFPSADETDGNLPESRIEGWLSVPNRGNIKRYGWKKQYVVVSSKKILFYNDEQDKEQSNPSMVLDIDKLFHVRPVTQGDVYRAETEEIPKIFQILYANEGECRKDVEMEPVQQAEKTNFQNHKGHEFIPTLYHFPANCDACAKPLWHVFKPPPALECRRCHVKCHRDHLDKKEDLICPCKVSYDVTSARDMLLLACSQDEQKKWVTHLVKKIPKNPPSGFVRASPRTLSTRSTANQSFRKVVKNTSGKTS

BTK(h) = target: T7, BTK(h) (Homo sapiens, UniProt Q06187); assay: Upstate kinase activity inhibition assay BTK(h); format: biochemical
T7 construct: purchased Upstate (KinaseProfiler service)

MLCK(h) = MLCK(h) (Homo sapiens, UniProt Q9H1R3); assay: Upstate kinase activity inhibition assay MLCK(h); settings: 40 min, read-out: percentage of enzyme activity that remains
HIPK2(h) = HIPK2(h) (Homo sapiens, UniProt Q9H2X6); assay: Upstate kinase activity inhibition assay HIPK2(h); settings: 40 min, read-out: percentage of enzyme activity that remains
NEK2(h) = NEK2(h) (Homo sapiens, UniProt P51955); assay: Upstate kinase activity inhibition assay NEK2(h); settings: 40 min, read-out: percentage of enzyme activity that remains
Ret(h) = target: T8, Ret(h) (Homo sapiens, UniProt P07949); assay: Upstate kinase activity inhibition assay Ret(h); format: biochemical; settings: 40 min; read-out: percentage of enzyme activity that remains
T8 construct: purchased Upstate (KinaseProfiler service)

NLK (h) = NLK (h) (Homo sapiens, UniProt Q9UBE8); assay: Upstate kinase activity inhibition assay NLK (h); settings: 40 min, read-out: percentage of enzyme activity that remains
Sequence of NLK (h) (Q9UBE8 whole entry): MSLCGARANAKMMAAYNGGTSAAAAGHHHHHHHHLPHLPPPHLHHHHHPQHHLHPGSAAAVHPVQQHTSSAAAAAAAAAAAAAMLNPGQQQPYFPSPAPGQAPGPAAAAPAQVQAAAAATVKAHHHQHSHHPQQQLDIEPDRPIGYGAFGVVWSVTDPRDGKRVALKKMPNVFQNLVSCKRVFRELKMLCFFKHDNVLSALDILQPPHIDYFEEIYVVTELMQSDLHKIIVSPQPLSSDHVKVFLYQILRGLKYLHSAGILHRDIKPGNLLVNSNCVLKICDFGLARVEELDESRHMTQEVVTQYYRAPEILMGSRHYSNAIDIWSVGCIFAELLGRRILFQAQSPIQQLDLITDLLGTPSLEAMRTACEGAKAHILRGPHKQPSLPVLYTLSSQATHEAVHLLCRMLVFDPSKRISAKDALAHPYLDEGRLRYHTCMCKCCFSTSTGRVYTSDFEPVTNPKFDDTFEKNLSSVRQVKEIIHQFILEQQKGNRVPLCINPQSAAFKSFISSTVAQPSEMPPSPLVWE

DDR2(h) = target: T9, DDR2(h) (Homo sapiens, UniProt Q16832); assay: Upstate kinase activity inhibition assay DDR2(h); format: biochemical; settings: 40 min; read-out: percentage of enzyme activity that remains
T9 construct: purchased Upstate (KinaseProfiler service)

CDK2/cyclinA(h) = target: T10, CDK2/cyclinA(h) (Homo sapiens, UniProt P24941); assay: Upstate kinase activity inhibition assay CDK2/cyclinA(h); format: biochemical; settings: 0.2 μM Compound E
T10 construct: purchased Upstate (KinaseProfiler service)

PKG1α(h) = target: T11, PKG1α(h) (Homo sapiens, UniProt Q13976); assay: Upstate kinase activity inhibition assay PKG1α(h); format: biochemical; settings: 40 min; read-out: percentage of enzyme activity that remains
T11 construct: purchased Upstate (KinaseProfiler service)

STK33(h) = STK33(h) (Homo sapiens, UniProt Q9BYT3); assay: Upstate kinase activity inhibition assay STK33(h); settings: 40 min, read-out: percentage of enzyme activity that remains
DYRK2(h) = target: T12, DYRK2(h) (Homo sapiens, UniProt Q92630); assay: Upstate kinase activity inhibition assay DYRK2(h); format: biochemical; settings: 40 min; read-out: percentage of enzyme activity that remains
T12 construct: purchased Upstate (KinaseProfiler service)
T12 sequence (Q92630 whole entry): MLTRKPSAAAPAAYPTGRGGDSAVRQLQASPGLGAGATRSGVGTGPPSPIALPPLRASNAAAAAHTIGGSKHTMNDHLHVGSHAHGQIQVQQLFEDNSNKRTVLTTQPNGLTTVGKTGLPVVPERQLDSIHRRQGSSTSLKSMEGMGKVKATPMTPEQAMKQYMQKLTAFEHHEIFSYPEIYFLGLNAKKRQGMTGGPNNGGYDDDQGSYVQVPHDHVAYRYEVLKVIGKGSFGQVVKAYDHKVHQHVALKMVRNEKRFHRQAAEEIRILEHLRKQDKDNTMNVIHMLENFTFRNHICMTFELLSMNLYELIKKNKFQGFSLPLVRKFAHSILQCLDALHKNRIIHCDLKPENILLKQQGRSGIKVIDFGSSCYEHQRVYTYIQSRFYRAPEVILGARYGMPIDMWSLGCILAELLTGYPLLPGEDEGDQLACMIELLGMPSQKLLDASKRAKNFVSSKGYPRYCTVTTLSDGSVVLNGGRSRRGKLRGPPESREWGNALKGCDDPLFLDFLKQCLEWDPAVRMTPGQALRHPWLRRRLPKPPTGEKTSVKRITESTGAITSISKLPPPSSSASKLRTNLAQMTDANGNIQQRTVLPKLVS

NEK7(h) = NEK7(h) (Homo sapiens, UniProt Q8TDX7); assay: Upstate kinase activity inhibition assay NEK7(h); format: biochemical; settings: 40 min; read-out: percentage of enzyme activity that remains
MST1(h) = target: T13, MST1(h) (Homo sapiens, UniProt Q13043); assay: Upstate kinase activity inhibition assay MST1(h); format: biochemical
T13 construct: purchased Upstate (KinaseProfiler service)

T1 sequence (P54760 16-987): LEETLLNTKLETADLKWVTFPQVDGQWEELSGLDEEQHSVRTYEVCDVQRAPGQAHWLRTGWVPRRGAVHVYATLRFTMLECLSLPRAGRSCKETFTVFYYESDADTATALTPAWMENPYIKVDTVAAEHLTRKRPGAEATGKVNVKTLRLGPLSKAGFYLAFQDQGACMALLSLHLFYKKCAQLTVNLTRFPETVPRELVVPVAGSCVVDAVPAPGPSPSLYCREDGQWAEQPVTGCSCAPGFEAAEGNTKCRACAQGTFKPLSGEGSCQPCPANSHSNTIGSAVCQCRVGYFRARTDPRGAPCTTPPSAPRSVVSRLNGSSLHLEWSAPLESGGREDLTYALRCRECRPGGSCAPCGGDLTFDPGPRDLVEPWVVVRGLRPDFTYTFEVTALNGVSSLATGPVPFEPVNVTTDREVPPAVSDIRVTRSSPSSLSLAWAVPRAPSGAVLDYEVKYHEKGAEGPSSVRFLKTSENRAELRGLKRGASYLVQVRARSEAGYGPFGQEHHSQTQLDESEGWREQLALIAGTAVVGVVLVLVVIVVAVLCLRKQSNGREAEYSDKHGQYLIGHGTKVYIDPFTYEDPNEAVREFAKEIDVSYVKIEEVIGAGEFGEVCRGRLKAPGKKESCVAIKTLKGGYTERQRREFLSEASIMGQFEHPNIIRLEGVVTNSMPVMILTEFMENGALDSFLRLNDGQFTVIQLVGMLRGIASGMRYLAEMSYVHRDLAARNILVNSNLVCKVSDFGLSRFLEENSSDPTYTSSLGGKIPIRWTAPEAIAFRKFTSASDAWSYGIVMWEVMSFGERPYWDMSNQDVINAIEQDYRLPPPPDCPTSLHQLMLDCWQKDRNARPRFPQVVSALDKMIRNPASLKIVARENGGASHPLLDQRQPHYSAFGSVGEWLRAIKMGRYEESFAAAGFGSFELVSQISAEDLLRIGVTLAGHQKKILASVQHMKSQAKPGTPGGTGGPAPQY

SMILES: Cc1cc(Nc2cc(N3CCN(C)CC3)nc(Sc3ccc(NC(=O)C4CC4)cc3)n2)n[nH]1 [Compound E, Cyclopropane carboxylic acid {4-[4-(4-methyl-piperazin-1-yl)-6-(5-methyl-2H-pyrazol-3-ylamino)-pyrimidin-2-ylsulphanyl]-phenyl}-amide]
- remaining activity at 0.2 µM (EphB4(h)): 91%
- remaining activity at 4 µM (EphB4(h)): 11%
- remaining activity at 0.2 µM (Fer(h)): 100%
- remaining activity at 4 µM (Fer(h)): 48%
- remaining activity at 0.2 µM (EphA2(h)): 78%
- remaining activity at 4 µM (EphA2(h)): 10%
- remaining activity at 0.2 µM (Rsk2(h)): 109%
- remaining activity at 4 µM (Rsk2(h)): 82%
- remaining activity at 0.2 µM (SRPK2(h)): 122%
- remaining activity at 4 µM (SRPK2(h)): 109%
- remaining activity at 0.2 µM (PRAK(h)): 114%
- remaining activity at 4 µM (PRAK(h)): 109%
- remaining activity at 4 µM (MRCKβ(h)): 100%
- remaining activity at 0.2 µM (Arg(h)): 8%
- remaining activity at 4 µM (Arg(h)): -1%
- remaining activity at 0.2 µM (TSSK1(h)): 122%
- remaining activity at 4 µM (TSSK1(h)): 99%
- remaining activity at 0.2 µM (TBK1(h)): 106%
- remaining activity at 4 µM (TBK1(h)): 57%
- percentage of enzyme activity that remains (CHK1(h); 0.2 μM Compound E): 99%
- percentage of enzyme activity that remains (CHK1(h); 4 μM Compound E): 92%
- remaining activity at 0.2 µM (IKKα(h)): 103%
- remaining activity at 4 µM (IKKα(h)): 99%
- percentage of enzyme activity that remains (JNK3(h); 0.2 μM Compound E): 94%
- percentage of enzyme activity that remains (JNK3(h); 4 μM Compound E): 69%
- remaining activity at 0.2 µM (PKBγ(h)): 89%
- remaining activity at 4 µM (PKBγ(h)): 83%
- remaining activity at 0.2 µM (ZIPK(h)): 100%
- remaining activity at 0.2 µM (PAK6(h)): 92%
- remaining activity at 4 µM (PAK6(h)): 92%
- remaining activity at 0.2 µM (ROCK-I(h)): 99%
- remaining activity at 4 µM (ROCK-I(h)): 91%
- percentage of enzyme activity that remains (BTK(h); 0.2 μM Compound E): 93%
- percentage of enzyme activity that remains (BTK(h); 4 μM Compound E): 49%
- remaining activity at 0.2 µM (MLCK(h)): 95%
- remaining activity at 4 µM (MLCK(h)): 88%
- remaining activity at 0.2 µM (HIPK2(h)): 107%
- remaining activity at 4 µM (HIPK2(h)): 110%
- remaining activity at 0.2 µM (NEK2(h)): 112%
- remaining activity at 4 µM (NEK2(h)): 109%
- remaining activity at 0.2 µM (Ret(h)): 34%
- remaining activity at 4 µM (Ret(h)): 2%
- remaining activity at 0.2 µM (NLK (h)): 105%
- remaining activity at 4 µM (NLK (h)): 99%
- remaining activity at 0.2 µM (DDR2(h)): 100%
- percentage of enzyme activity that remains (CDK2/cyclinA(h)): 99%
- remaining activity at 4 µM (PKG1α(h)): 89%
- remaining activity at 0.2 µM (STK33(h)): 112%
- remaining activity at 4 µM (STK33(h)): 110%
- remaining activity at 0.2 µM (DYRK2(h)): 100%
- remaining activity at 4 µM (DYRK2(h)): 110%
- remaining activity at 0.2 µM (NEK7(h)): 84%
- remaining activity at 4 µM (NEK7(h)): 83%
- percentage of enzyme activity that remains (MST1(h); 0.2 μM Compound E): 88%
- percentage of enzyme activity that remains (MST1(h); 4 μM Compound E): 38%
